These results are taken from ChEMBL document CHEMBL4007482, “Evaluation of anti-diabetic effect and gall bladder function with 2-thio-5-thiomethyl substituted imidazoles as TGR5 receptor agonists” (Bioorg Med Chem Lett, 2017).

Type in all cases: ADME, organism-based
A short description of series [1]: MRT in C57BL/6J mouse at 20 mg/kg, po via gavage by LC-MS/MS analysis. Particulars: in vivo.
Series [2] can be described thus: Clearance in C57BL/6J mouse at 5 mg/kg, iv by LC-MS/MS analysis. Conditions: in vivo.
Series [3] can be described thus: Plasma concentration in fasted C57BL/6J mouse at 30 mg/kg, sc after 45 mins.
Series [4] in a line: AUClast in C57BL/6J mouse at 5 mg/kg, iv by LC-MS/MS analysis. Also noted: dose 5 mg/kg, route intravenous, time 0 - last. Conditions: in vivo.
The nature of series [5]: AUClast in C57BL/6J mouse at 20 mg/kg, po via gavage by LC-MS/MS analysis. Conditions: in vivo. Also noted: dose 20 mg/kg, time 0 - last, route oral.
A short description of series [6]: Volume of distribution at steady state in C57BL/6J mouse at 5 mg/kg, iv by LC-MS/MS analysis. Conditions: in vivo, read-out: Vdss.
Series [7] in a line: Oral bioavailability in C57BL/6J mouse at 20 mg/kg via gavage by LC-MS/MS analysis. Particulars: in vivo.
Series [8] can be described thus: Apparent volume of distribution in C57BL/6J mouse at 5 mg/kg, iv by LC-MS/MS analysis. Particulars: in vivo, read-out: Vz.
Series [9] in a line: Plasma concentration in C57BL/6J mouse at 50 mg/kg, po after 45 mins by LC-MS/MS analysis.
The nature of series [10]: Half life in C57BL/6J mouse at 20 mg/kg, po via gavage by LC-MS/MS analysis. Conditions: in vivo.
Series [11] is described as follows: Plasma concentration in fasted C57BL/6J mouse at 50 mg/kg, po after 45 mins.
A short description of series [12]: AUC (0 to infinity) in C57BL/6J mouse at 20 mg/kg, po via gavage by LC-MS/MS analysis. On the set-up: dose 20 mg/kg, route oral, time infinity. Conditions: in vivo.
Series [13] can be described thus: Cmax in C57BL/6J mouse at 20 mg/kg, po via gavage by LC-MS/MS analysis. Particulars: in vivo. On the set-up: dose 20 mg/kg, route oral.
Series [14] in a line: MRT in C57BL/6J mouse at 5 mg/kg, iv by LC-MS/MS analysis. Particulars: in vivo.
Series [15] can be described thus: Plasma concentration in CD-1 mouse at 50 mg/kg, po after 1.25 hrs.
Series [16] is described as follows: Half life in C57BL/6J mouse at 5 mg/kg, iv by LC-MS/MS analysis. Conditions: in vivo.
Series [17] in a line: Tmax in C57BL/6J mouse at 20 mg/kg, po via gavage by LC-MS/MS analysis. Particulars: in vivo.
Series [18] can be described thus: AUC (0 to infinity) in C57BL/6J mouse at 5 mg/kg, iv by LC-MS/MS analysis. Also noted: dose 5 mg/kg, time infinity, route intravenous. Particulars: in vivo.

The term MRT denotes a mean duration of stay, worked out from the concentration-time curve. As a reminder, the clearance is the rate of elimination divided by the concentration. A high value points to a high capacity for elimination. What is called AUC(0-t) is exposure summed from dosing to a finite time, without extrapolation to infinity. Read a high AUC(0-t) as more exposure. The term bioavailability denotes the share of a dose that reaches the circulation, judged against a reference dose that is usually intravenous. Read a high bioavailability as much systemic uptake. A word on the half-life: it is how long it takes for the measured level to halve. Read a high half-life as slow decline. Broadly, the AUC(0-inf) is total exposure, with the tail of the curve extrapolated. The low end stands for less exposure, the high end for more exposure. One may read the Cmax as the maximum level reached in the sampled fluid or tissue. What is called Tmax is the time at which the peak concentration occurs. On to `COc1ccc(SCc2cnc(SCc3c(F)cc(-c4nn[nH]n4)cc3F)n2-c2ccc(F)cc2)cc1OC`, for which the figures for the mean residence time (MRT) in series [1] and in series [14] were 82.2 min and 17 min, respectively. Besides, the clearance in series [2] turned out to be 214 mL/min/kg. Further, the concentration at 0.75 h in [3] came out at 15800 nM; in series [9], 1180 nM; in series [11], 1030 nM. Also, the AUC(0-t) in series [4] is 379 ng·h/mL; in series [5], 98.4 ng·h/mL. The values for the Vd in series [6] and in series [8] were 4.44 L/kg and 8.24 L/kg, respectively. The bioavailability in series [7] was determined as 6.48%. Besides, the half-life was 164 min in [10] and 26.7 min in series [16]. The AUC(0-inf) in series [12] was 148 ng·h/mL; in series [18], 390 ng·h/mL. The same compound gave a Cmax in series [13] of 68.1 ng/mL. For the same compound, the concentration at 1.25 h in series [15] was determined as 20 nM. Moreover, the Tmax in [17] is 30 min.
